From the NIST ThermoML archive (doi:10.1021/je300670n)
Numbers after ± are expanded uncertainties.

How the values were obtained:
[1] = Liquid; for mass density: 298.15 K, 101.33 kPa, Vibrating tube method; for vapor or sublimation pressure: Ebulliometric method (Recirculating still)
[2] = refractive index (Na D-line) (dimensionless); settings: 101.33 kPa, Liquid, Standard Abbe refractometry
[3] = xn = mol fraction of the nth substance listed; settings: 101 kPa, Liquid, Vibrating tube method
[4] = excess molar enthalpy (molar enthalpy of mixing); xn = mol fraction of the nth substance listed; settings: 298.15 K, 101 kPa, Liquid, Flow calorimetry

CCOC(C)(C)CC [1,1-dimethylpropyl ethyl ether]
Settings	mass density [kg/m3]
[1]	760.52 ± 0.34

Settings	refractive index	vapor or sublimation pressure [kPa]
[1], 324.31 K	–	17.7 ± 0.4
[1], 331.83 K	–	24 ± 0.4
[1], 343.83 K	–	37.6 ± 0.4
[1], 345.82 K	–	40.3 ± 0.4
[1], 349.21 K	–	45.4 ± 0.4
[1], 351.71 K	–	49.5 ± 0.4
[1], 355.12 K	–	55.5 ± 0.4
[1], 357.39 K	–	59.9 ± 0.4
[1], 358.01 K	–	61 ± 0.4
[1], 358.09 K	–	61.3 ± 0.4
[1], 359.96 K	–	65.1 ± 0.4
[1], 362.13 K	–	69.7 ± 0.4
[1], 364.42 K	–	74.9 ± 0.4
[1], 366.44 K	–	79.6 ± 0.4
[1], 367.36 K	–	81.8 ± 0.4
[1], 368.16 K	–	83.8 ± 0.4
[1], 373.7 K	–	98.9 ± 0.5
[1], 374.41 K	–	101 ± 0.5
[2], 293.15 K	1.39112 ± 0.00031	–
[2], 298.15 K	1.38858 ± 0.00031	–

CCOC(C)(C)CC [1,1-dimethylpropyl ethyl ether] + CCC(C)(C)O
[3]
Settings	mass density [kg/m3]
297.7 K, x1 = 0.1005	798.8 ± 0.5
297.71 K, x1 = 0.2006	793.2 ± 0.5
297.71 K, x1 = 0.3013	788.2 ± 0.5
297.71 K, x1 = 0.4018	783.4 ± 0.4
297.71 K, x1 = 0.5013	778.9 ± 0.4
297.71 K, x1 = 0.601	774.7 ± 0.4
297.71 K, x1 = 0.7003	770.9 ± 0.4
297.71 K, x1 = 0.8011	767.1 ± 0.4
297.72 K, x1 = 0.9003	763.7 ± 0.5

[4]
Settings	excess molar enthalpy [kcal/mol]
x1 = 0.1005	0.0565 ± 0.00263
x1 = 0.2006	0.107 ± 0.00359
x1 = 0.3013	0.151 ± 0.0043
x1 = 0.4018	0.187 ± 0.00526
x1 = 0.5013	0.214 ± 0.00598
x1 = 0.601	0.23 ± 0.00621
x1 = 0.7003	0.232 ± 0.00621
x1 = 0.8011	0.215 ± 0.00598
x1 = 0.9003	0.159 ± 0.00478

CCOC(C)(C)CC [1,1-dimethylpropyl ethyl ether] + CCC(C)O
[3]
Settings	mass density [kg/m3]
297.67 K, x1 = 0.7012	770.2 ± 0.4
297.67 K, x1 = 0.8001	766.9 ± 0.4
297.68 K, x1 = 0.5005	777.9 ± 0.4
297.68 K, x1 = 0.6008	774 ± 0.4
297.68 K, x1 = 0.899	763.8 ± 0.5
297.69 K, x1 = 0.1011	796.8 ± 0.4
297.69 K, x1 = 0.2007	791.6 ± 0.4
297.69 K, x1 = 0.3008	786.6 ± 0.4
297.69 K, x1 = 0.4013	782 ± 0.4

[4]
Settings	excess molar enthalpy [kcal/mol]
x1 = 0.1011	0.0648 ± 0.00287
x1 = 0.2007	0.123 ± 0.00406
x1 = 0.3008	0.172 ± 0.00502
x1 = 0.4013	0.208 ± 0.00574
x1 = 0.5005	0.229 ± 0.00621
x1 = 0.6008	0.236 ± 0.00645
x1 = 0.7012	0.226 ± 0.00621
x1 = 0.8001	0.196 ± 0.00574
x1 = 0.899	0.133 ± 0.0043

CCOC(C)(C)CC [1,1-dimethylpropyl ethyl ether] + CCCCO
mass density [kg/m3], [3]
Settings	x1 = 0.101	x1 = 0.2005	x1 = 0.3022	x1 = 0.401	x1 = 0.5023	x1 = 0.6005	x1 = 0.7009	x1 = 0.7999	x1 = 0.902
297.7 K	801 ± 0.4	796.1 ± 0.4	–	786.6 ± 0.4	782 ± 0.4	–	–	–	764.8 ± 0.5
297.71 K	–	–	791.1 ± 0.4	–	–	777.5 ± 0.4	773.3 ± 0.4	769.2 ± 0.4	–

[4]
Settings	excess molar enthalpy [kcal/mol]
x1 = 0.101	0.0285 ± 0.00151
x1 = 0.2005	0.06 ± 0.00208
x1 = 0.3022	0.0905 ± 0.00263
x1 = 0.401	0.116 ± 0.00335
x1 = 0.5023	0.135 ± 0.00382
x1 = 0.6005	0.147 ± 0.00406
x1 = 0.7009	0.147 ± 0.00406
x1 = 0.7999	0.133 ± 0.00382
x1 = 0.902	0.0913 ± 0.00311

CCC(C)(C)O [2-methylbutan-2-ol]
Settings	mass density [kg/m3]
[1]	805.29 ± 0.39

Settings	refractive index	vapor or sublimation pressure [kPa]
[1], 334.98 K	–	18.8 ± 0.4
[1], 344.45 K	–	29.4 ± 0.4
[1], 351.18 K	–	39.5 ± 0.4
[1], 354.1 K	–	44.7 ± 0.4
[1], 356.81 K	–	50.1 ± 0.4
[1], 358.12 K	–	52.8 ± 0.4
[1], 359.14 K	–	55 ± 0.4
[1], 361.21 K	–	59.7 ± 0.4
[1], 363.43 K	–	65.2 ± 0.4
[1], 365.23 K	–	69.8 ± 0.4
[1], 367.1 K	–	75 ± 0.5
[1], 368.88 K	–	80.1 ± 0.5
[1], 371.04 K	–	86.7 ± 0.5
[1], 375.78 K	–	102.7 ± 0.5
[2], 298.15 K	1.40248 ± 0.00037	–

CCCCO [butan-1-ol]
Settings	mass density [kg/m3]
[1]	805.97 ± 0.34

Settings	refractive index	vapor or sublimation pressure [kPa]
[1], 345.91 K	–	15.6 ± 0.4
[1], 358.05 K	–	27.4 ± 0.4
[1], 359.46 K	–	29.4 ± 0.4
[1], 366.26 K	–	39.3 ± 0.4
[1], 369.57 K	–	45.1 ± 0.4
[1], 372.02 K	–	49.8 ± 0.4
[1], 374.43 K	–	54.9 ± 0.4
[1], 376.72 K	–	60.1 ± 0.4
[1], 378.46 K	–	64.2 ± 0.4
[1], 380.74 K	–	70.2 ± 0.4
[1], 382.55 K	–	75.1 ± 0.4
[1], 384.3 K	–	80.1 ± 0.5
[1], 385.78 K	–	84.6 ± 0.5
[1], 390.41 K	–	100 ± 0.5
[2], 298.15 K	1.3972 ± 0.0003	–

CCC(C)O (configuration not stated) [butan-2-ol]
Settings	mass density [kg/m3]
[1]	802.71 ± 0.35

Settings	refractive index	vapor or sublimation pressure [kPa]
[1], 330.11 K	–	15.7 ± 0.4
[1], 337.99 K	–	23.3 ± 0.4
[1], 345.15 K	–	32.7 ± 0.4
[1], 354.49 K	–	49.4 ± 0.4
[1], 357.15 K	–	55.3 ± 0.4
[1], 358.16 K	–	57.3 ± 0.4
[1], 358.98 K	–	59.6 ± 0.4
[1], 362.88 K	–	69.9 ± 0.4
[1], 365.08 K	–	76.3 ± 0.5
[1], 366.13 K	–	79.5 ± 0.5
[1], 367.13 K	–	82.9 ± 0.5
[1], 371.51 K	–	98.3 ± 0.4
[1], 372.43 K	–	100.6 ± 0.4
[2], 298.15 K	1.3951 ± 0.0003	–
